What was measured:
Test in all cases: Protein kinase inhibition assay
Assay type in all cases: biochemical
MAPK1(h) = MAPK1(h) (Homo sapiens, UniProt P27361); conditions: read-out: percent residual activity of MAPK1(h)
Experimental: (§1) Certain compounds were tested for activity in protein kinase inhibition assays. All substrates were dissolved and diluted to working stocks in de-ionized water, apart from histone H1 (10× working stock in 20 mM MOPS pH 7.0), PDKtide (10× working stock in 50 mM Tris pH 7.0) ATF2 (which is typically stored at a 20× working stock in 50 mM Tris pH 7.5, 150 mM NaCl, 0.1 mM EGTA, 0.03% Brij-35, 50% glycerol, 1 mM benzamidine, 0.2 mM PMSF and 0.1% R-mercaptoethanol), KKLNRTLSFAEPG (SEQ ID NO:203) and RRRLSFAEPG (SEQ ID NO:204) (50 mM HEPES pH 7.4) and GGEEEEYFELVKKKK (SEQ ID NO:205) (20 mM MOPS pH 7.0). All kinases were pre-diluted to a 10× working concentration prior to addition into the assay. The composition of the dilution buffer for each kinase is detailed below.
In a final reaction volume of 25 μl, MAPK1 (h) (5-10 mU) is incubated with 25 mM Tris pH 7.5, 0.02 mM EGTA, 250 μM peptide, 10 mM MgAcetate and [gamma-33P-ATP] (specific activity approx. 500 cpm/pmol, concentration as required). The reaction is initiated by the addition of the MgATP mix. After incubation for 40 minutes at room temperature, the reaction is stopped by the addition of 5 μl of a 3% phosphoric acid solution. 10 μl of the reaction is then spotted onto a P30 filtermat and washed three times for 5 minutes in 75 mM phosphoric acid and once in methanol prior to drying and scintillation counting.

PKCα(h) = PKCα(h) (Homo sapiens, UniProt P17252); conditions: read-out: percent residual activity of PKCα(h)
Experimental: as §1
In a final reaction volume of 25 μl, PKCα (h) (5-10 mU) is incubated with 20 mM HEPES pH 7.4, 0.03% Triton X-100, […], 0.1 mg/ml phosphatidylserine, 10 μg/ml diacylglycerol, 0.1 mg/ml histone H1, 10 mM MgAcetate and [gamma-33P-ATP] (specific activity approx. 500 cpm/pmol, concentration as required). The reaction is initiated by the addition of the MgATP mix. After incubation for 40 minutes at room temperature, the reaction is stopped by the addition of 5 μl of a 3% phosphoric acid solution. […]

Itk(h) = Itk(h) (Homo sapiens, UniProt Q08881); conditions: read-out: percent residual activity of Itk(h)
Experimental: as §1

HIPK1(h) = HIPK1(h) (Homo sapiens, UniProt Q86Z02); conditions: read-out: percent residual activity of HIPK1(h)
Experimental: as §1

PKG1α(h) = PKG1α(h) (Homo sapiens, UniProt Q13976); conditions: read-out: percent residual activity of PKG1α(h)
Experimental: as §1

EphA8(h) = EphA8(h) (Homo sapiens, UniProt P29322); conditions: read-out: percent residual activity of EphA8(h)
Experimental: as §1

CaMKI(h) = CaMKI(h) (Homo sapiens, UniProt Q14012); conditions: read-out: percent residual activity of CaMKI(h)
Experimental: as §1

HIPK3(h) = HIPK3(h) (Homo sapiens, UniProt Q9H422); conditions: read-out: percent residual activity of HIPK3(h)
Experimental: as §1

DYRK2(h) = DYRK2(h) (Homo sapiens, UniProt Q92630); conditions: read-out: percent residual activity of DYRK2(h)
Experimental: as §1

CK2α2(h) = CK2α2(h) (Homo sapiens, UniProt P19784); conditions: read-out: percent residual activity of CK2α2(h)
Experimental: as §1

PAK5(h) = PAK5(h) (Homo sapiens, UniProt Q9P286); conditions: read-out: percent residual activity of PAK5(h)
Experimental: as §1

DCAMKL2(h) = DCAMKL2(h) (Homo sapiens, UniProt Q8N568); conditions: read-out: percent residual activity of DCAMKL2(h)
Experimental: as §1

DMPK(h) = DMPK(h) (Homo sapiens, UniProt Q09013); conditions: read-out: percent residual activity of DMPK(h)
Experimental: as §1

NLK (h) = NLK (h) (Homo sapiens, UniProt Q9UBE8); conditions: read-out: percent residual activity of NLK (h)
Experimental: as §1

MLK1(h) = MLK1(h) (Homo sapiens, UniProt P80192); conditions: read-out: percent residual activity of MLK1(h)
Experimental: as §1

CaMKIIγ(h) = CaMKIIγ(h) (Homo sapiens, UniProt Q13555); conditions: read-out: percent residual activity of CaMKIIγ(h)
Experimental: as §1

ARK5(h) = ARK5(h) (Homo sapiens, UniProt O60285); conditions: read-out: percent residual activity of ARK5(h)
Experimental: as §1

NEK11(h) = NEK11(h) (Homo sapiens, UniProt Q8NG66); conditions: read-out: percent residual activity of NEK11(h)
Experimental: as §1

CK1γ3(h) = CK1γ3(h) (Homo sapiens, UniProt Q9Y6M4); conditions: read-out: percent residual activity of CK1γ3(h)
Experimental: as §1

GRK6(h) = GRK6(h) (Homo sapiens, UniProt P43250); conditions: read-out: percent residual activity of GRK6(h)
Experimental: as §1

PhKγ2(h) = PhKγ2(h) (Homo sapiens, UniProt P15735); conditions: read-out: percent residual activity of PhKγ2(h)
Experimental: as §1

NEK3(h) = NEK3(h) (Homo sapiens, UniProt P51956); conditions: read-out: percent residual activity of NEK3(h)
Experimental: as §1

Chain of HIPK3(h) (Q9H422 whole entry): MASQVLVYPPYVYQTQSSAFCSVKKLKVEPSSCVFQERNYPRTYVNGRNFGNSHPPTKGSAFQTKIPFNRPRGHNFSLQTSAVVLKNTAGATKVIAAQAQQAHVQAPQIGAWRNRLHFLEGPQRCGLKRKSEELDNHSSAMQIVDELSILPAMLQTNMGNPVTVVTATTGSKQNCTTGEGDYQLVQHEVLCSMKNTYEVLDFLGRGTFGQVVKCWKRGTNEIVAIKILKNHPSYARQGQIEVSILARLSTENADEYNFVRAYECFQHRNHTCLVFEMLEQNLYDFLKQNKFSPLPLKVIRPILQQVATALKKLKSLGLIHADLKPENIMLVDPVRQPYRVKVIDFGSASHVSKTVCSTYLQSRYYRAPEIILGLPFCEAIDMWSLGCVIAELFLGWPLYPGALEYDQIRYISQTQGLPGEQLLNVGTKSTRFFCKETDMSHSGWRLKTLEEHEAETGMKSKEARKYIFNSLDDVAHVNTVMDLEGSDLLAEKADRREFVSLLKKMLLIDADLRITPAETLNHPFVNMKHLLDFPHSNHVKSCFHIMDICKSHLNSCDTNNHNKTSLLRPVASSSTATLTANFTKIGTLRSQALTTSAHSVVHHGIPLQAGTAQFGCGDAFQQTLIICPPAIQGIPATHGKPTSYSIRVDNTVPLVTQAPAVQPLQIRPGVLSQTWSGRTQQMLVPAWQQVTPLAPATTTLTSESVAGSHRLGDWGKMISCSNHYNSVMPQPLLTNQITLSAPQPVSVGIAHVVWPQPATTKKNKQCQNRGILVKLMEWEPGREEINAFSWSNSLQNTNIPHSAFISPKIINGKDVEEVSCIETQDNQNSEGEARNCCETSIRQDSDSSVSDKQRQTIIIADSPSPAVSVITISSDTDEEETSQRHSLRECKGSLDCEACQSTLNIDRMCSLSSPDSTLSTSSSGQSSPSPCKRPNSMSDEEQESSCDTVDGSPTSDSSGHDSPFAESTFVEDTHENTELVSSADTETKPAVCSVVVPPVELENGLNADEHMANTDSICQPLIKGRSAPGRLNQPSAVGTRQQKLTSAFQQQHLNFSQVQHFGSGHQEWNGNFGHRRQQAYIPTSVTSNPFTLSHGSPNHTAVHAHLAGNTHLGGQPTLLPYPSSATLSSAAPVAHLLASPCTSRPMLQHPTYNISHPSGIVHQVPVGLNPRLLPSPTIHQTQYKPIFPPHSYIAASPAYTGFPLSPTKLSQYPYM
Chain of NEK3(h) (P51956 whole entry): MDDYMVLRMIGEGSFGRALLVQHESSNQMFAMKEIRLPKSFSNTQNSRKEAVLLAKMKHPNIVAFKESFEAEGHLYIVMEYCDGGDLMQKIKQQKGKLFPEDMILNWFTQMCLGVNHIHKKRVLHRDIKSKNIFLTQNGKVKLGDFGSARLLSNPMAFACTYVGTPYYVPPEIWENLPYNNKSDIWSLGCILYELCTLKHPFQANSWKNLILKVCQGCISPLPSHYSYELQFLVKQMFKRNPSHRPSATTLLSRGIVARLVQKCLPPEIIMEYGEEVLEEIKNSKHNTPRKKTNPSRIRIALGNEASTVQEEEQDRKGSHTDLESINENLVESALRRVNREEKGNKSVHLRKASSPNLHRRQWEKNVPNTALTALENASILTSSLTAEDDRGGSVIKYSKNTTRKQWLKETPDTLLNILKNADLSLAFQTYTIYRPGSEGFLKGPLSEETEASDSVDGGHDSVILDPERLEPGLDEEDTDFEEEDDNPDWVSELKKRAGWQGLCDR
Chain of PKG1α(h) (Q13976 whole entry): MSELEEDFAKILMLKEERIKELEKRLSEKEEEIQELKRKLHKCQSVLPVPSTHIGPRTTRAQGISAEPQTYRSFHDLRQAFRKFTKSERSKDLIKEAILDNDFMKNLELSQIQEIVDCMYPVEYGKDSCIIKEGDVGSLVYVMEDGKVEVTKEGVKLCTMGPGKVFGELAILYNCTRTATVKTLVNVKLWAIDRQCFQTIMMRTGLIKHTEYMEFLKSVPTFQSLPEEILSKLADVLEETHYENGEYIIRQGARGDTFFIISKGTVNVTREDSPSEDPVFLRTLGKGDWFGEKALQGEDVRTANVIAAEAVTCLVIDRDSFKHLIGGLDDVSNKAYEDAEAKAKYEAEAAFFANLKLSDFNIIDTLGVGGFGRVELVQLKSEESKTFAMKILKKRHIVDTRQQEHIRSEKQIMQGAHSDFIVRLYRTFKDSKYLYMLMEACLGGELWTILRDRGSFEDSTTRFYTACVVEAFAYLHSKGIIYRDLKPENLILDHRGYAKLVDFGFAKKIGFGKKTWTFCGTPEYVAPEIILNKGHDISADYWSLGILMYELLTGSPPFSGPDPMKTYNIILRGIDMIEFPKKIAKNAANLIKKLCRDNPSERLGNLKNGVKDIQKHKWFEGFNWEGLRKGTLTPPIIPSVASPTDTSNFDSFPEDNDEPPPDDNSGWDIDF
Chain of MLK1(h) (P80192 whole entry): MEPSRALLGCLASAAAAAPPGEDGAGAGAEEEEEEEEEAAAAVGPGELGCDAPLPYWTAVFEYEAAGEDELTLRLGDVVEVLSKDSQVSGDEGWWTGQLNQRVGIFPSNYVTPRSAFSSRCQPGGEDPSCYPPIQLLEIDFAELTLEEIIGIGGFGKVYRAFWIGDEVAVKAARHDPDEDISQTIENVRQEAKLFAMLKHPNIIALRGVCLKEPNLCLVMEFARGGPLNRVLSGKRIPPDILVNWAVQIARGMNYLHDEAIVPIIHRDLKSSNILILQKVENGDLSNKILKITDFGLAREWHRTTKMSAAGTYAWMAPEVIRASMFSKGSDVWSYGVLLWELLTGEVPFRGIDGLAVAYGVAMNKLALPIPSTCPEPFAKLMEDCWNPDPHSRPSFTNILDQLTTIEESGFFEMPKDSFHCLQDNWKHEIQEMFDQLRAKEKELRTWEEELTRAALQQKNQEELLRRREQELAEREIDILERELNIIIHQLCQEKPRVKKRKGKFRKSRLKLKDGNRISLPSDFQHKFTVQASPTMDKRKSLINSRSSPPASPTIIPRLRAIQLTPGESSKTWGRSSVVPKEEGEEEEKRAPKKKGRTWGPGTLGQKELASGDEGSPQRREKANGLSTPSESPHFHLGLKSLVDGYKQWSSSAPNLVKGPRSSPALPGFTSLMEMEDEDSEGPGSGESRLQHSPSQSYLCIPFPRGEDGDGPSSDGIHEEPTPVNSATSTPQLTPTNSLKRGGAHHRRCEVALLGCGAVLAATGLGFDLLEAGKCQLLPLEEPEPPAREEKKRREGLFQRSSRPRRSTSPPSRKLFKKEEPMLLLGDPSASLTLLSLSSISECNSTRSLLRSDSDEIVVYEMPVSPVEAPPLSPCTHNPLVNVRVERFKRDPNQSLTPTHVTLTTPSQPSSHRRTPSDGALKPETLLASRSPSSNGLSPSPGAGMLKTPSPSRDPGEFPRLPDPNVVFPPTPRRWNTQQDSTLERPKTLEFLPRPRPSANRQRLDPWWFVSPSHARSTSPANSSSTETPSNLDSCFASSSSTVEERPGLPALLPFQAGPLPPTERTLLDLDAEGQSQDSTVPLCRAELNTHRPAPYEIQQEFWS
Chain of PhKγ2(h) (P15735 whole entry): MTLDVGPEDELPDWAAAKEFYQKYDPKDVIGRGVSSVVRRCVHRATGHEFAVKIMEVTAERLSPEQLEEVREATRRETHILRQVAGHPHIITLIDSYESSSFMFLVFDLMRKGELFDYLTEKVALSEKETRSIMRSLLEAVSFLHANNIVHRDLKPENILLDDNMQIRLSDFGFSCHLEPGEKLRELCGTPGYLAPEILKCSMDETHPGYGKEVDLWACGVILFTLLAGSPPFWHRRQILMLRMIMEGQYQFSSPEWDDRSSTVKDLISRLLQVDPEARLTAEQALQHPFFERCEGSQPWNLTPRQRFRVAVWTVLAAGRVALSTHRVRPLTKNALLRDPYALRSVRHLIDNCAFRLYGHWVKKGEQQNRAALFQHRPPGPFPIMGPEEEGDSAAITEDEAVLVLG
Chain of CK2α2(h) (P19784 whole entry): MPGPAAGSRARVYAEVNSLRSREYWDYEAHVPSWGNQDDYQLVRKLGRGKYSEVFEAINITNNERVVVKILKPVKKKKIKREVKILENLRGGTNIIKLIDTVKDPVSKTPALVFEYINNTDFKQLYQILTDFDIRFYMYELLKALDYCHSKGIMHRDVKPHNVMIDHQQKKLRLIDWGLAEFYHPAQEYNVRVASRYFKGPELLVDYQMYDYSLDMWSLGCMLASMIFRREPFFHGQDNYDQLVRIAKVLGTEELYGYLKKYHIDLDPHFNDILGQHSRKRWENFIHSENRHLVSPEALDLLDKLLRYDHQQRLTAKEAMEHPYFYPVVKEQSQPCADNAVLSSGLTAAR
Chain of NEK11(h) (Q8NG66 whole entry): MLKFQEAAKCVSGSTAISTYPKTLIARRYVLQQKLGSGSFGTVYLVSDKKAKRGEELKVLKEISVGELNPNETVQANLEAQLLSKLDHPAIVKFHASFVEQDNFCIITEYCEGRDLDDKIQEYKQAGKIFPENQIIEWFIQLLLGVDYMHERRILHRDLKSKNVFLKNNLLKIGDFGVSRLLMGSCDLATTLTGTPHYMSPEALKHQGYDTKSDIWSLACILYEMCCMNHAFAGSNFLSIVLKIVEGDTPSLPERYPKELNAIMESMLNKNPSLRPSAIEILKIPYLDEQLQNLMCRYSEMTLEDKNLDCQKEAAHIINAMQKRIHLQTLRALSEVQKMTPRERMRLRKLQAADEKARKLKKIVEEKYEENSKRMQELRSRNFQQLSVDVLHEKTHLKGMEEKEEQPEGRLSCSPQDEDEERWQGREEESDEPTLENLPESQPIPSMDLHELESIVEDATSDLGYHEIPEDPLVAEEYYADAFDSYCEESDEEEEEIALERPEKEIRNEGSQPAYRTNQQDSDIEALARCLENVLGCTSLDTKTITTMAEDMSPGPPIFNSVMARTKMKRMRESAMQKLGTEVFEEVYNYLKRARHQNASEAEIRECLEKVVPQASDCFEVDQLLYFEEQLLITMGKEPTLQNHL

| remaining activity at 2.5 µM (MAPK1(h)) [%] | remaining activity at 2.5 µM (PKCα(h)) [%] | remaining activity at 2.5 µM (Itk(h)) [%] | remaining activity at 2.5 µM (HIPK1(h)) [%] | remaining activity at 2.5 µM (PKG1α(h)) [%] | remaining activity at 2.5 µM (EphA8(h)) [%] | remaining activity at 2.5 µM (CaMKI(h)) [%] | remaining activity at 2.5 µM (HIPK3(h)) [%] | remaining activity at 2.5 µM (DYRK2(h)) [%] | remaining activity at 2.5 µM (CK2α2(h)) [%] | remaining activity at 2.5 µM (PAK5(h)) [%] | remaining activity at 2.5 µM (DCAMKL2(h)) [%] | remaining activity at 2.5 µM (DMPK(h)) [%] | remaining activity at 2.5 µM (NLK (h)) [%] | remaining activity at 2.5 µM (MLK1(h)) [%] | remaining activity at 2.5 µM (CaMKIIγ(h)) [%] | remaining activity at 2.5 µM (ARK5(h)) [%] | remaining activity at 2.5 µM (NEK11(h)) [%] | remaining activity at 2.5 µM (CK1γ3(h)) [%] | remaining activity at 2.5 µM (GRK6(h)) [%] | SMILES | other results |
| --- | --- | --- | --- | --- | --- | --- | --- | --- | --- | --- | --- | --- | --- | --- | --- | --- | --- | --- | --- | --- | --- |
| 92 | 90 | 117 | 95 | 57 | 100 | 95 | 102 | 70 | 115 | 103 | 48 | 92 | 90 | 85 | 110 | 79 | 70 | 103 | 90 | CN1CCCC1CCNC(=O)c1cn2c3c(c(N4CCC(c5cnccn5)C4)c(F)cc3c1=O)Oc1cc3ccccc3cc1-2 (centres unmarked) [Compound A-1] | remaining activity at 2.5 µM (PhKγ2(h)): 46%; remaining activity at 2.5 µM (NEK3(h)): 94% |
| 94 | 101 | 102 | 101 | 101 | 100 | 106 | 97 | 75 | 116 | 101 | 111 | 105 | 109 | 86 | 104 | 104 | 107 | 114 | 83 | CC(=O)N1CCN(c2ccc3c(=O)c(C(=O)NCCN4CCCC4)c4n(C)c5ccccc5n4c3n2)CC1 [Compound B-1] | remaining activity at 2.5 µM (PhKγ2(h)): 118%; remaining activity at 2.5 µM (NEK3(h)): 118% |

— patent US20070117770A1, “Human ribosomal DNA (rDNA) and ribosomal RNA (rRNA) nucleic acids and uses thereof” (Cylene Pharmaceuticals, Inc., priority 2005, published 2007)
